Assays:
[1] = biological target: T1, ubiquitin E1 (UBA1) (Homo sapiens, UniProt P22314); assay: E1-ubiquitin thioester gel assay with fluorescein-ubiquitin without E2; type: biochemical
T1 sequence (P22314 2-1058): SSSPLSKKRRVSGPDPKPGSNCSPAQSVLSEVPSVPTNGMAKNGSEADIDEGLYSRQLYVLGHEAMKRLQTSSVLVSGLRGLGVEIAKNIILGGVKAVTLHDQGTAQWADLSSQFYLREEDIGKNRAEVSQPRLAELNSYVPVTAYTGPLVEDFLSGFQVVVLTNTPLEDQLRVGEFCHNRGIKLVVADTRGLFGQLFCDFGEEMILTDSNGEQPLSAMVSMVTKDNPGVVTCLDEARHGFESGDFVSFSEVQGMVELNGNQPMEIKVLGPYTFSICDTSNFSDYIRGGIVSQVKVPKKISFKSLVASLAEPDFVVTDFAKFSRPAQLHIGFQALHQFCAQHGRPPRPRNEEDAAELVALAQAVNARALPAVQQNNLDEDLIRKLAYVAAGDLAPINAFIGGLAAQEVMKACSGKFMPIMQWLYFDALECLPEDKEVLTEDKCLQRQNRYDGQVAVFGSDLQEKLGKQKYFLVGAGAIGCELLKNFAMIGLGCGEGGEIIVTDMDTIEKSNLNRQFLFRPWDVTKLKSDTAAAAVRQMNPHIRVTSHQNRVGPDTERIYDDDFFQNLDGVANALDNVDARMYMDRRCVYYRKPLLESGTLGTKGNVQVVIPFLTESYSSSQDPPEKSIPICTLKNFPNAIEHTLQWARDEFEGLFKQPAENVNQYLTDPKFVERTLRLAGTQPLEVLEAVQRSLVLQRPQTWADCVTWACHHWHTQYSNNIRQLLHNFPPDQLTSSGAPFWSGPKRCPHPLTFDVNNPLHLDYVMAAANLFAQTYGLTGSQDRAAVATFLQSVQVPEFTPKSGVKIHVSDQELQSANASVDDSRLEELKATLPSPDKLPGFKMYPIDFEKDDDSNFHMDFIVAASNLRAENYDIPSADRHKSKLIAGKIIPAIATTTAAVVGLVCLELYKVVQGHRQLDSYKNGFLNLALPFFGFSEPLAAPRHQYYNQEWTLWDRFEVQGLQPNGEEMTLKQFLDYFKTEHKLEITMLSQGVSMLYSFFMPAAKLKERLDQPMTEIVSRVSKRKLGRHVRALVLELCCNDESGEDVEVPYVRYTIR

[2] = biological target: T1, ubiquitin E1 (UBA1); assay: […]-AMP:[α-32P]-ATP exchange TLC assay; type: biochemical

IC50 [1] [µM] | IC50 [2] [µM] | SMILES
~9 | – | CCCCCCCCCCNCCSSCc1ccc(Cl)cc1 [compound 1, NSC624206]
– | 6.4 | CCOC(=O)c1ccc(N2NC(=O)C(=Cc3ccc([N+](=O)[O-])o3)C2=O)cc1 [PYR-41]
